Series [1] deals with panel of 6 selected human cancer cell lines (LXFL 1674L, SW-620, CAL-27, RKO, MDA-MB-468, SK-OV-3). Put plainly: IC50 determination in a panel of tumor cell lines (CellTiter-Blue Cell Viability assay). In kind it is cell-based. The protocol:
Samples were provided to Charles River Discovery Research Services Germany GmbH as frozen stock solutions in pharmaceutical grade DMSO (Sigma-Aldrich, Taufkirchen, Germany). On each day of the experiment, a frozen aliquot of stock solution was thawed. Subsequent serial dilutions were realized with complete RPMI 1640 cell culture medium using an intermediate dilution plate. 10 μL taken from the intermediate dilution plate were then transferred to 140 μL/well of the cell culture plate. Cells were treated with the test compounds at 10 concentrations in triplicate in half-log steps from 0.003 nM to 100 nM for a period of 96 h.
The compounds were tested in a panel of 6 selected human cancer cell lines by using CellTiter-Blue® Cell Viability assay (Promega, Mannheim, Germany). IC values are reported as absolute IC50 values, obtained for a test compound as the geometric mean of IC50 values over all cell lines tested.
The cell lines used were LXFL 1674L (established from patient-derived xenograft at Charles River Discovery Research Services Germany GmbH), SW-620 (kindly provided by the NCI, Bethesda, Md., USA), CAL-27 (purchased from DSMZ, Deutsche Sammlung von Mikroorganismen und Zellkulturen, Braunschweig, Germany), RKO, MDA-MB-468, and SK-OV-3 (from ATCC, American Type Culture Collection, Rockville, Md., USA). Authenticity of all cell lines was proven at the DSMZ by STR (short tandem repeat) analysis, a PCR based DNA-fingerprinting methodology. Cell lines were routinely passaged once or twice weekly and maintained in culture for up to 20 passages. Cells were grown at 37° C. in a humidified atmosphere with 5% CO2 in RPMI 1640 medium (25 mM HEPES, with L-glutamine, Biochrom, Berlin, Germany) supplemented with 10% (v/v) fetal calf serum (Sigma-Aldrich, Taufkirchen, Germany) and 0.1 mg/mL gentamicin (Life Technologies, Karlsruhe, Germany). The CellTiter-Blue® Cell Viability Assay was used according to manufacturer's instructions. Briefly, cells were harvested from exponential phase cultures, counted and plated in 96-well flat-bottom microtiter plates at a cell density of 4,000-10,000 cells/well depending on the cell line's growth rate. After a 24 h recovery period to allow the cells to resume exponential growth, 10 μL of culture medium (six control wells/plate) or of culture medium with test compound were added. The compounds were applied at 10 concentrations in triplicate in half-log increments up to 100 nM and cells were treated continuously for 96 h. […] Following an incubation period of up to 4 h, fluorescence (FU) was measured by using the Enspire Multimode Plate Reader (excitation λ=531 nm, emission λ=615 nm). IC50 values were determined with GraphPad Prism bioanalytic software (San Diego, Calif., USA).
For orientation: The colour change of resazurin is a common sign of viable cells or microbes.

The nature of series [2]: pH-dependent release of free drug from human serum albumin conjugates. The note with it: upon changing the pH from 7.4 to 4.1, 37° C., up to 24 hours. The class given is physicochemical. The protocol: The albumin-binding auristatin-Sulf07 derivatives were prepared as 2 mM stock solutions in anhydrous DMSO.
Release at pH 7.4: 442.4 μL of 1000 μM of reduced human serum albumin (881 μM free cysteine-34) and 727.6 μL PBS Buffer (4 mM sodium phosphate pH 7.4 and 150 mM NaCl) were added to a sealed HPLC vial and incubated at 37° C. for 30 minutes. After 30 minutes incubation 130 μL of the appropriate DMSO drug stock solution was added to the pre-incubated vial to produce a 200 μM solution of auristatin drug and a 300 μM solution of albumin (free cysteine-34). The mixture was allowed to react for 10 minutes at 37° C. and then analyzed by HPLC (method 7, 20 μL injection). Injections were repeated after 1 hour and then every hour up to 24 hours.
Release at pH 4.1: 408.5 μL of 1000 μM of reduced human serum albumin (881 μM free cysteine-34) and 539.4 μL of water were added to a sealed HPLC vial and incubated at 37° C. for 30 minutes. In a separate vial 190 μL sodium acetate buffer 50 mM pH 3.0 and 24.7 μL 1 M HCl were incubated at 37° C. for 30 minutes. […] The resulting solution was analyzed directly by HPLC (method 7). […]
The percentage of released free drug was determined by HPLC with a calibration curve (200 μM, 100 μM, 50 μM, 25 μM and 12.5 μM) for the free drugs i.e. AE-Keto for AE-Keto-Sulf07 and AE-Ester for AE-Ester-Sulf07. […]

Series [3] can be described thus: Reconstitution stability (maleimide hydrolysis, loss of API) in reconstitution buffer. The class given is physicochemical. The note with it: after 4 hours incubation at room temperature in reconstitution buffer (50 mM sodium phosphate pH 7.65 containing 4% HPβCD and 5% sucrose). The protocol: The albumin-binding AE-Keto drug derivatives were reconstituted in 50 mM sodium phosphate buffer pH 7.6 which contained 5% sucrose (w/v) and 2% 2-hydroxypropyl-β-cyclodextrin (2-HPβCD). Both drugs were reconstituted at a concentration of 1277 μM (equal to 4.5 mg/kg murine xenograft dose), the dissolution of both drugs was confirmed by HPLC (method 2, 254 nm). Stability of the reconstituted drugs was monitored by HPLC at room temperature every 15 minutes over a period of 240 minutes for maleimide hydrolysis and loss of API.
The albumin-binding AE-Ester derivatives were reconstituted in 50 mM sodium phosphate buffer pH 7.6 which contained 5% sucrose (w/v) and 4% 2-HPβCD. Both drugs were reconstituted at a concentration of 655 μM (equal to 2.4 mg/kg murine xenograft dose), the dissolution of both drugs was confirmed by HPLC (method 2, 310 nm). Stability of the reconstituted drugs was monitored by HPLC at room temperature every 15 minutes over a period of 240 minutes for maleimide hydrolysis and loss of API.

Where [4] appears, read: Homo sapiens, 96 h, read-out: Geometric mean IC50, geometric mean over six cell lines, 96 h treatment.

Experimental findings from patent US11377473B2, “Albumin-binding prodrugs of auristatin E derivatives” (priority 2017, dated 2022) are described below.

Each structure is given as a SMILES string. Read-outs that look alike come from different tables or passages of the source.

By IC50 is commonly meant the concentration that gives 50% inhibition.

Consider `CC[C@H](C)[C@@H]([C@@H](CC(=O)N1CCC[C@H]1[C@H](OC)[C@@H](C)C(=O)N[C@H](C)[C@@H](OC(=O)c1ccc(C(C)=O)cc1)c1ccccc1)OC)N(C)C(=O)[C@@H](NC(=O)[C@H](C(C)C)N(C)C)C(C)C` (stereo in doubt) [AE-Ester, (1S,2R)-2-((3R)-3-((S)-1-((3R,4S,5R)-4-((S)-2-((S)-2-(dimethylamino)-3-methylbutanamido)-N,3-dimethylbutanamido)-3-methoxy-5-methylheptanoyl)pyrrolidin-2-yl)-3-methoxy-2-methylpropanamido)-1-phenylpropyl 4-acetylbenzoate], for which the IC50 in series [1] (setting [4]) was 0.339 nM; in series [1] (read-out: Geometric mean IC50, geometric mean over six cell lines, 96 h treatment), 0.399 ± 0.00019 nM. In series [2], the “percent of free drug released from albumin conjugate” value is on record as “higher than the percent of AE-Keto released”.

Turning to `CC[C@H](C)[C@@H]([C@@H](CC(=O)N1CCC[C@H]1[C@H](OC)[C@@H](C)C(=O)N[C@H](C)[C@@H](OC(=O)c1ccc(C(C)=NNC(=O)CCCCCN2C(=O)C=CC2=O)cc1)c1ccccc1)OC)N(C)C(=O)[C@@H](NC(=O)[C@H](C(C)C)N(C)C)C(C)C` [AE-Ester-EMCH, reference compound], in series [3], the maleimide hydrolyzed worked out at 11.0%.

Consider `CC[C@H](C)[C@@H]([C@@H](CC(=O)N1CCC[C@H]1[C@H](OC)[C@@H](C)C(=O)N[C@H](C)C(=O)c1ccccc1)OC)N(C)C(=O)[C@@H](NC(=O)[C@H](C(C)C)N(C)C)C(C)C` [AE-Keto, (S)-1-(((S)-1-(((3R,4S,5S)-3-methoxy-1-((S)-2-((1R,2R)-1-methoxy-2-methyl-3-oxo-3-(((R)-1-oxo-1-phenylpropan-2-yl)amino)propyl)pyrrolidin-1-yl)-5-methyl-1-oxoheptan-4-yl)(methyl)amino)-3-methyl-1-oxobutan-2-yl)amino)-N,N,3-trimethyl-1-oxobutan-2-aminium 2,2,2-trifluoroacetate], for which, in series [1] (setting [4]), the IC50 was 0.259 nM.

`CC[C@H](C)[C@@H]([C@@H](CC(=O)N1CCC[C@H]1[C@H](OC)[C@@H](C)C(=O)N[C@H](C)C(=NNC(=O)CCCCCN1C(=O)C=CC1=O)c1ccccc1)OC)N(C)C(=O)[C@@H](NC(=O)[C@H](C(C)C)N(C)C)C(C)C` [AE-Keto-EMCH, reference compound] gave a maleimide hydrolyzed in series [3] of 5.4%.
